Measurements taken from patent publication US6905706B2, “Medicinal herbal extract carpediol for treating depression” (Swedish Herbal Institute, priority 2002, dated 2005).
Marks after values point to notes of the source that are not given here.

Assays:
[1] = tested on: Male Wistar rats; assay: Behavioral despair "forced swimming" test; assay type: in vivo, rat; details: 30 min pretreatment; for Duration of immobility: mean ± SEM
Text: Behavioral despair was proposed as a model to test for antidepressant activity by Porsolt et al (25-27). […] This behavior reflects a state of despair which can be reduced by several agents which are therapeutically effective in human depression.
Procedure—The procedure described by Porsolt et al. (25-27) was used with minor modifications described by Chatterjee et al. (28-29). Male Wistar rats weighing 170-200 g were used. They were brought to the laboratory at least one day before the experiment and were housed separately in cages with free access to food and water. Naive rats were individually forced to swim inside a vertical glass cylinder (height: 50 cm; diameter: 25 cm, containing 20 cm of water maintained at 25° C.). […] After 2-3 minutes, activity began to subside and to be interspersed with phases of immobility or floating of increasing length. After 5-6 minutes, immobility reached a plateau where the rats remained immobile for approximately 80% of the time. After 15 minutes in the water, the rats were removed and allowed to dry in a heated enclosure (32° C.) before being returned to their home cages. Total immobility time, i.e., the time of complete cessation of swimming with the head floating just above water level, was quantified 48 hours later after re-exposing them to the water for 5 minutes. They were placed in the cylinder 48 hours later and the total duration of immobility was measured during a 5 minute test. […] An animal was judged to be immobile whenever it remained floating passively in the water in a slightly hunched but upright position, its nose just above the surface. Test samples (Hypericum extracts: HP, HPSE, Jarsin 300, HRFC, Crassulaceae special extracts, Carpediol) and standard drugs (amitriptyline and Imipramine) were administered 3 times immediately after pre-exposure, and 24 and one hour prior to testing (re-exposure) as described in Chatterjee et al., Antidepressant activity of Hypericum perforatum and Hyperforin: the neglected possibility. Pharmacopsychiatry. 31 (Suppl 1):7-15 1998), which is incorporated by reference herein in its entirety.
Evaluation—Duration of immobility was measured in controls and animals treated with various doses of a test drug or standard. Antidepressant drugs, but also stimulants like amphetamine and caffeine, reduced duration of immobility. Dose-responses were evaluated.
Two series of experiments were performed with the following test drugs:
Series A: HP, HPSE, HRFC, CRE, Jarsin, amitriptyline.
Series B: CRE-A, CRE-B, CRE-C, CRE-D, ASFC, imipramine.
They were group-housed, four per cage at ambient temperature of 20±2° and 40-50% relative humidity, with a 12 hour dark/12 hour light cycle (lighting on time 8 a.m.). The animals had free access to pellet chow (Comby) and drinking water.
The extracts were administered once daily for 3 consecutive days. Experiments were performed on day 3, 1 hour after the last drug or vehicle application. Amitriptyline was used as the standard antidepressant, and was administered in a single dose of 3 mg/kg (p.o.) with a pretreatment time of 30 min.
They were administered in a volume of 5 ml/kg (p.o.). The extracts were administered once daily for 3 consecutive days. Experiments were performed on day 3, 1 hour after the last drug or vehicle application. Imipramine-HCl diluted with water to concentration of 6 mg/ml, positive control was used as the standard antidepressant. Imipramine was administered in a single dose of 30 mg/kg (p.o.) with a pretreatment time of 30 minutes. All behavioral studies were performed between 1-3 p.m. and recorded by a video camera. The tapes were evaluated afterwards by an observer who was not informed about the type of treatment each animal had received.
Statistics—Statistical analysis of the duration of immobilization time of rats in swimming test was performed by unpaired two tailed Students t-test with significance 95% confidence interval. […]

[2] = simultaneous application; cited from earlier work
[3] = Series A, 3 mg/kg p.o. single dose
[4] = Series B, 30 mg/kg p.o. single dose

CN(C)CCC=C1c2ccccc2CCc2ccccc21 [Amitriptyline]
Percent (duration of immobility vs vehicle) [1, 3]: 66.3%
Percent decrease (duration of immobility) [1, 3]: 43.7%
Duration of immobility [1, 3]: 117.8 ± 33.32, n = 8 seconds

CN(C)CCCN1c2ccccc2CCc2ccccc21 [Imipramine]
Percent (duration of immobility vs vehicle) [1, 4]: 34.9*** Percent
Percent decrease (duration of immobility) [1, 4]: 65.1*** Percent
Duration of immobility [1, 4]: 76.0 ± 21.1 n = 6 Seconds

CN/C(=N/CCSCc1nc[nH]c1C)NC#N [cimetidine]
Effect on the metabolism of theophylline (in words) [2]: inhibit

CC(C)NCC(O)COc1cccc2ccccc12 (centres unmarked) [propranolol]
Effect on the metabolism of theophylline (in words) [2]: inhibit
